Measurements: patent US6737383B1, “Herbicidal oxadiazolidines” (priority 1999, dated 2004)

Legend:
bedstraw = experiment: Test B pre/postemergence bedstraw; assay type: in vivo, Galium aparine
Summary of the method: (§1)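 Response is a visual 0-to-10 score relative to untreated plants, where 0 means no effect and 10 means complete control, taken twelve to sixteen days after application. Treatments went onto soil at planting and onto foliage of 1- to 4-leaf plants, using a surfactant-containing non-phytotoxic solvent.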

blackgrass = experiment: Test B pre/postemergence blackgrass; assay type: in vivo, Alopecurus myosuroides
Summary of the method: as §1

surinam grass = experiment: Test B pre/postemergence surinam grass; assay type: in vivo, Brachiaria decumbens
Summary of the method: as §1

cocklebur = experiment: Test B pre/postemergence cocklebur; assay type: in vivo, Xanthium strumarium
Summary of the method: as §1

corn = experiment: Test B pre/postemergence corn; assay type: in vivo, Zea mays
Summary of the method: as §1

crabgrass = experiment: Test B pre/postemergence crabgrass; assay type: in vivo, Digitaria sanguinalis
Summary of the method: as §1

giant foxtail = experiment: Test B pre/postemergence giant foxtail; assay type: in vivo, Setaria faberii
Summary of the method: as §1

morningglory = experiment: Test B pre/postemergence morningglory; assay type: in vivo, Ipomoea hederacea
Summary of the method: as §1

pigweed = experiment: Test B pre/postemergence pigweed; assay type: in vivo, Amaranthus retroflexus
Summary of the method: as §1

rape = experiment: Test B pre/postemergence rape; assay type: in vivo, Brassica napus
Summary of the method: as §1

soybean = experiment: Test B pre/postemergence soybean; assay type: in vivo, Glycine max
Summary of the method: as §1

sugar beet = experiment: Test B pre/postemergence sugar beet; assay type: in vivo, Beta vulgaris
Summary of the method: as §1

velvetleaf = experiment: Test B pre/postemergence velvetleaf; assay type: in vivo, Abutilon theophrasti
Summary of the method: as §1

wheat = experiment: Test B pre/postemergence wheat; assay type: in vivo, Triticum aestivum
Summary of the method: as §1

wild oat = experiment: Test B pre/postemergence wild oat; assay type: in vivo, Avena fatua
Summary of the method: as §1

purple nutsedge = experiment: Test B pre/postemergence purple nutsedge; assay type: in vivo, Cyperus rotundus
Summary of the method: as §1

rice = experiment: Test B flood test rice; assay type: in vivo, Oryza sativa
Summary of the method: (§2)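 Read-out is a visual response score from 0 (no effect) to 10 (complete control), assigned by comparison with untreated controls. Treatment was applied at the 2-leaf stage, and plants stayed in the greenhouse for twelve to sixteen days before scoring.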

smallflower flatsedge = experiment: Test B flood test smallflower flatsedge; assay type: in vivo, Cyperus difformis
Summary of the method: as §2

duck salad = experiment: Test B flood test duck salad; assay type: in vivo, Heteranthera limosa
Summary of the method: as §2

bamyardgrass = experiment: Test B flood test barnyardgrass; assay type: in vivo, Echinochloa crus-galli
Summary of the method: as §2

[1] = Preemergence, Rate 62 g/ha, scale of 0 to 10 where 0 is no effect and 10 is complete control
[2] = Preemergence, Rate 250 g/ha, scale of 0 to 10 where 0 is no effect and 10 is complete control
[3] = Preemergence, Rate 500 g/ha, scale of 0 to 10 where 0 is no effect and 10 is complete control
[4] = Rate 62 g/ha, Postemergence, scale of 0 to 10 where 0 is no effect and 10 is complete control
[5] = Rate 125 g/ha, Postemergence, scale 0 to 10
[6] = Rate 500 g/ha, Postemergence, scale 0 to 10, 0 no effect, 10 complete control
[7] = Rate 125 g/ha, Preemergence, scale of 0 to 10 where 0 is no effect and 10 is complete control
[8] = Rate 62 g/ha, headed Pre-emergence (flood test species), scale 0 to 10 (0 no effect, 10 complete control)
[9] = Rate 125 g/ha, Pre-emergence, flood test species, scale 0 to 10 where 0 is no effect and 10 is complete control
[10] = Rate 250 g/ha, Pre-emergence, flood-test species, scale 0 to 10, 0 is no effect, 10 is complete control
[11] = Rate 500 g/ha, Pre-emergence, flood test species, scale 0 to 10 (0 no effect, 10 complete control)

C=CCn1c(=O)on(C(=O)N(c2ccc(F)cc2)C2CCCCCC2)c1=O [Compound 249]
5: Plant response rating, Giant foxtail (giant foxtail; [3])
0: Bedstraw plant response rating (bedstraw; [1]) | Bedstraw plant response rating (bedstraw; [2]) | Plant response rating, Bedstraw (bedstraw; [3]) | Bedstraw plant response rating (bedstraw; [4]) | Bedstraw plant response rating (bedstraw; [5]) | Plant response rating (0 to 10; 0 is no effect, 10 is complete control), Bedstraw (bedstraw; Rate 250 g/ha, Postemergence) | Bedstraw plant response rating (bedstraw; [6]) | Blackgrass plant response rating (blackgrass; [1]) | Blackgrass plant response rating (blackgrass; [2]) | Plant response rating, Blackgrass (blackgrass; [3]) | Blackgrass plant response rating (blackgrass; [4]) | Blackgrass plant response rating (blackgrass; [5]) | Blackgrass plant response rating (blackgrass; [7]) | Plant response rating (0 to 10; 0 is no effect, 10 is complete control), Blackgrass (blackgrass; Rate 250 g/ha, Postemergence) | Blackgrass plant response rating (blackgrass; [6]) | B. signalgrass plant response rating (surinam grass; [1]) | B. signalgrass plant response rating (surinam grass; [2]) | Plant response rating, B. signalgrass (surinam grass; [3]) | B. signalgrass plant response rating (surinam grass; [4]) | B. signalgrass plant response rating (surinam grass; Rate 125 g/ha, Postemergence, scale 0 (no effect) to 10 (complete control)) | B. signalgrass plant response rating (surinam grass; [7]) | Plant response rating (0 to 10; 0 is no effect, 10 is complete control), B. signalgrass (surinam grass; Rate 250 g/ha, Postemergence) | B. signalgrass plant response rating (surinam grass; [6]) | Cocklebur plant response rating (cocklebur; [1]) | Cocklebur plant response rating (cocklebur; [2]) | Plant response rating, Cocklebur (cocklebur; [3]) | Cocklebur plant response rating (cocklebur; [4]) | Cocklebur plant response rating (cocklebur; [5]) | Cocklebur plant response rating (cocklebur; [7]) | Plant response rating (0 to 10; 0 is no effect, 10 is complete control), Cocklebur (cocklebur; Rate 250 g/ha, Postemergence) | Cocklebur plant response rating (cocklebur; [6]) | Corn plant response rating (corn; [1]) | Corn plant response rating (corn; [2]) | Plant response rating, Corn (corn; [3]) | Corn plant response rating (corn; [4]) | Corn plant response rating (corn; [5]) | Corn plant response rating (corn; [7]) | Plant response rating (0 to 10; 0 is no effect, 10 is complete control), Corn (corn; Rate 250 g/ha, Postemergence) | Corn plant response rating (corn; [6]) | Crabgrass plant response rating (crabgrass; [1]) | Crabgrass plant response rating (crabgrass; [2]) | Crabgrass plant response rating (crabgrass; [7]) | Plant response rating (0 to 10; 0 is no effect, 10 is complete control), Crabgrass (crabgrass; Rate 250 g/ha, Postemergence) | Crabgrass plant response rating (crabgrass; [6]) | Giant foxtail plant response rating (giant foxtail; [1]) | Giant foxtail plant response rating (giant foxtail; [7]) | Plant response rating (0 to 10; 0 is no effect, 10 is complete control), Giant foxtail (giant foxtail; Rate 250 g/ha, Postemergence) | Giant foxtail plant response rating (giant foxtail; [6]) | Morningglory plant response rating (morningglory; [1]) | Morningglory plant response rating (morningglory; [2]) | Plant response rating, Morningglory (morningglory; [3]) | Morningglory plant response rating (morningglory; [7]) | Plant response rating (0 to 10; 0 is no effect, 10 is complete control), Morningglory (morningglory; Rate 250 g/ha, Postemergence) | Redroot pigweed plant response rating (pigweed; [1]) | Redroot pigweed plant response rating (pigweed; [2]) | Plant response rating, Redroot pigweed (pigweed; [3]) | Redroot pigweed plant response rating (pigweed; [7]) | Plant response rating (0 to 10; 0 is no effect, 10 is complete control), Redroot pigweed (pigweed; Rate 250 g/ha, Postemergence) | Rape plant response rating (rape; [1]) | Rape plant response rating (rape; [2]) | Plant response rating, Rape (rape; [3]) | Rape plant response rating (rape; [7]) | Plant response rating (0 to 10; 0 is no effect, 10 is complete control), Rape (rape; Rate 250 g/ha, Postemergence) | Rape plant response rating (rape; [6]) | Soybean plant response rating (soybean; [1]) | Soybean plant response rating (soybean; [2]) | Plant response rating, Soybean (soybean; [3]) | Soybean plant response rating (soybean; [7]) | Sugarbeets plant response rating (sugar beet; [1]) | Sugarbeets plant response rating (sugar beet; [2]) | Plant response rating, Sugarbeets (sugar beet; [3]) | Sugarbeets plant response rating (sugar beet; [7]) | Velvetleaf plant response rating (velvetleaf; [1]) | Velvetleaf plant response rating (velvetleaf; [2]) | Plant response rating, Velvetleaf (velvetleaf; [3]) | Velvetleaf plant response rating (velvetleaf; [7]) | Velvetleaf plant response rating (velvetleaf; [6]) | Wheat plant response rating (wheat; [1]) | Wheat plant response rating (wheat; [2]) | Plant response rating, Wheat (wheat; [3]) | Wheat plant response rating (wheat; [7]) | Wheat plant response rating (wheat; [6]) | Wild oats plant response rating (wild oat; [1]) | Wild oats plant response rating (wild oat; [2]) | Plant response rating, Wild oats (wild oat; [3]) | Wild oats plant response rating (wild oat; [7]) | Wild oats plant response rating (wild oat; [6]) | Nutsedge plant response rating (purple nutsedge; [1]) | Nutsedge plant response rating (purple nutsedge; [2]) | Plant response rating, Nutsedge (purple nutsedge; [3]) | Nutsedge plant response rating (purple nutsedge; [7]) | Plant response rating (0 to 10; 0 is no effect, 10 is complete control), Nutsedge (purple nutsedge; Rate 250 g/ha, Postemergence) | Nutsedge plant response rating (purple nutsedge; [6]) | Rice plant response rating (rice; [8]) | Rice plant response rating (rice; [9]) | Rice plant response rating (rice; [10]) | Rice plant response rating (rice; [11]) | S. Flatsedge plant response rating (smallflower flatsedge; [8]) | S. Flatsedge plant response rating (smallflower flatsedge; [9]) | S. Flatsedge plant response rating (smallflower flatsedge; [10]) | S. Flatsedge plant response rating (smallflower flatsedge; [11]) | Ducksalad plant response rating (duck salad; [8]) | Ducksalad plant response rating (duck salad; [9]) | Ducksalad plant response rating (duck salad; [10]) | Ducksalad plant response rating (duck salad; [11]) | Barnyardgrass plant response rating (bamyardgrass; [8]) | Barnyardgrass plant response rating (bamyardgrass; [9]) | Barnyardgrass plant response rating (bamyardgrass; [10]) | Barnyardgrass plant response rating (bamyardgrass; [11])
3: Giant foxtail plant response rating (giant foxtail; [2]) | Morningglory plant response rating (morningglory; [6]) | Redroot pigweed plant response rating (pigweed; [6])
2: Plant response rating, Crabgrass (crabgrass; [3]) | Sugarbeets plant response rating (sugar beet; [6])
4: Soybean plant response rating (soybean; [6])
